Source: patent publication US6914051B1, “Penetrating antibiotic gel for soft tissue diseases” (priority 2000, dated 2005)

How the values were obtained:
[1] = system: Chlamydia Pneumoniae; conditions: reported; cited from earlier work
[2] = system: phospholipase A2; conditions: VanBebeke et al, 1994; cited from earlier work
[3] = system: cervical/lumbosacral disc disease; experiment: Clinical injection/arthroscopic application of azithromycin with liposome in disc disease; assay type: in vivo, human; conditions: two occasions, applied with a liposome and another anti-inflammatory at surgical arthroscopy of the intervertebral disc
Source text: The therapy of the present invention was also observed to be effective in clinical treatment of cervical/lumbosacral disc disease.

[4] = system: severe acute lower back pain; conditions: short-term oral treatment; effect not seen three or so days after onset; cited from earlier work

Compound | potency against Chlamydia Pneumoniae [1] | effect on neurotoxic phospholipase A2 [2] | relief of the patients' severe pain [3] | response of severe acute lower back pain [4]
Cc1c(F)c(N2CCNC(C)C2)cc2c1c(=O)c(C(=O)O)cn2C1CC1 (centres unmarked) [Grepafloxacin] | good potency |  |  | 
CC[C@H]1OC(=O)[C@H](C)[C@@H](O[C@H]2C[C@@](C)(OC)[C@@H](O)[C@H](C)O2)[C@H](C)[C@@H](O[C@@H]2O[C@H](C)C[C@H](N(C)C)[C@H]2O)[C@](C)(O)C[C@@H](C)CN(C)[C@H](C)[C@@H](O)[C@]1(C)O [azithromycin, azithromycin dihydrate] |  | direct effect in mitigating the effects | good and immediate relief | respond dramatically
CO[C@H]1/C=C/O[C@@]2(C)Oc3c(C)c(O)c4c(O)c(c(/C=N/N5CCN(C)CC5)c(O)c4c3C2=O)NC(=O)/C(C)=C\C=C\[C@H](C)[C@H](O)[C@@H](C)[C@@H](O)[C@@H](C)[C@H](OC(C)=O)[C@@H]1C [rifanpin] | good potency |  |  | 
